From US5326788A, “Biological fluid purification system” (priority 1992, dated 1994)
Where “and” joins values, the source holds several entries; their conditions need not be identical. Identical values can stand only once.

Experiments:
HIV-2 = test: Syncytia assay, HUT78 cells infected with ROD-2 isolate co-cultured with H9 cells; assay type: cell-based; settings: 24 hours
Experimental: In order to assess the effects of Hy and Ps on the ability of HIV to form syncytia, the following experiments were performed. For the analysis of HIV-1, an entry syncytia assay was performed by co-culturing H9 cells (described in Popovic, M. et al. Science 224: 497-500, 1984) infected with the IIIb isolate of HIV with uninfected Supt-1 cells (Walker, B. D. et al. Proc. Nat. Acad. Sci. (USA) 84: 8120-8124, 1987) as the target cell. HIV-2 was tested using HUT78 cells (obtained from the National Institute of Health by reference to Depository Catalog, Reagent Program, Bethesda, Md.) infected with the ROD-2 isolate of HIV-2 co-cultured with uninfected H9 target cells. The infected cells were plated in 96 well plates (10^4 cells per well in RPM1 1640 medium with 10% fetal calf serum) and incubated with or without dilutions of Ps or Hy for 30 minutes at 37° C. 1×10^5 target cells were then added per well and the number of syncytia were quantitatively and qualitatively determined after 24 hours.

[1] = Effect of hypericin on hematologic parameters and blood chemistries of mouse blood; parameters: Hematocrit: unit not given here; settings: for BUN / Hb / Hematocrit / WBC / albumin / alk. phos. / calcium / chloride / cholesterol / creatinine / globulins / glucose / iron / phosphorous / retics / sodium / total bilirubin / total protein / triglycerides / uric acid: mouse blood
Experimental: Analogous experiments to assess the effect of hypericin on routine clinical chemistries and hematologic parameters were determined in a commercial laboratory on mouse blood using higher concentrations of hypericin. Eight blood samples drawn in parallel were treated with hypericin ranging in concentration from 2.5 micrograms/ml to 200 micrograms/ml of whole blood.

Cc1cc(O)c2c(=O)c3c(O)cc(O)c4c5c(O)cc(O)c6c(=O)c7c(O)cc(C)c8c1c2c(c34)c(c78)c65 [hypericin]
syncytia score (number 0-4, size S/M/L) (HIV-2; 7 nanograms): 4 L | syncytia score (number 0-4, size S/M/L) (HIV-2; 14 nanograms): 4 L | syncytia score (number 0-4, size S/M/L) (HIV-2; 28 nanograms): 4 L | syncytia score (number 0-4, size S/M/L) (HIV-2; 56 nanograms): 3 M | syncytia score (number 0-4, size S/M/L) (HIV-2; 112 nanograms): 1S | syncytia score (number 0-4, size S/M/L) (HIV-2; 225 nanograms): 0 | syncytia score (number 0-4, size S/M/L) (HIV-2; 450 nanograms): 0 | syncytia score (number 0-4, size S/M/L) (HIV-2; 900 nanograms): 0 | syncytia score (number 0-4, size S/M/L) (HIV-2; 1800 nanograms): 0 | BUN ([1]; 2.5 μg hypericin): 18 mg/dL and 17 mg/dL | Hb ([1]; 2.5 μg hypericin): 12.7 gm, dl | Hematocrit ([1]; 2.5 μg hypericin): 38.3 and 37.8 | WBC ([1]; 2.5 μg hypericin): 4.6 /cumm and 4.8 /cumm | albumin ([1]; 2.5 μg hypericin): 3.4 g/dL and 2.6 g/dL | alk. phos. ([1]; 2.5 μg hypericin): 140 IU/l and 121 IU/l | calcium ([1]; 2.5 μg hypericin): 6.7 mg/dL and 5.4 mg/dL | chloride ([1]; 2.5 μg hypericin): 113 meq/l and 102 meq/l | cholesterol ([1]; 2.5 μg hypericin): 149 mg/dL and 143 mg/dL | creatinine ([1]; 2.5 μg hypericin): 0.4 mg/dL | globulins ([1]; 2.5 μg hypericin): 2.6 g/dL and 3.2 g/dL | glucose ([1]; 2.5 μg hypericin): 113 mg/dL and 68 mg/dL | iron ([1]; 2.5 μg hypericin): 219 mog/dl and 169 mog/dl | phosphorous ([1]; 2.5 μg hypericin): 8.1 mg/dL and 7.2 mg/dL | retics ([1]; 2.5 μg hypericin): 1.5% and 2.3% | sodium ([1]; 2.5 μg hypericin): 150 meq/l and 138 meq/l | total bilirubin ([1]; 2.5 μg hypericin): 0.8 mg/dL and 1.2 mg/dL | total protein ([1]; 2.5 μg hypericin): 6.0 g/dL and 5.8 g/dL | triglycerides ([1]; 2.5 μg hypericin): 80 mg/dL and 77 mg/dL | uric acid ([1]; 2.5 μg hypericin): 2.6 mg/dL and 2.8 mg/dL | BUN ([1]; 5.0 μg hypericin): 18 mg/dL | Hb ([1]; 5.0 μg hypericin): 12.9 gm, dl and 12.4 gm, dl | Hematocrit ([1]; 5.0 μg hypericin): 38.5 | WBC ([1]; 5.0 μg hypericin): 4.7 /cumm and 4.5 /cumm | albumin ([1]; 5.0 μg hypericin): 3.5 g/dL | alk. phos. ([1]; 5.0 μg hypericin): 140 IU/l | calcium ([1]; 5.0 μg hypericin): 7.0 mg/dL | chloride ([1]; 5.0 μg hypericin): 113 meq/l | cholesterol ([1]; 5.0 μg hypericin): 156 mg/dL | creatinine ([1]; 5.0 μg hypericin): 0.4 mg/dL | glucose ([1]; 5.0 μg hypericin): 112 mg/dL | iron ([1]; 5.0 μg hypericin): 220 mog/dl | phosphorous ([1]; 5.0 μg hypericin): 8.1 mg/dL | retics ([1]; 5.0 μg hypericin): 2.2% and 2.0% | sodium ([1]; 5.0 μg hypericin): 150 meq/l | total bilirubin ([1]; 5.0 μg hypericin): 0.8 mg/dL | triglycerides ([1]; 5.0 μg hypericin): 85 mg/dL | uric acid ([1]; 5.0 μg hypericin): 2.7 mg/dL | BUN ([1]; 10 μg hypericin): 18 mg/dL | Hb ([1]; 10 μg hypericin): 12.8 gm, dl and 12.3 gm, dl | Hematocrit ([1]; 10 μg hypericin): 37.8 | WBC ([1]; 10 μg hypericin): 4.5 /cumm | albumin ([1]; 10 μg hypericin): 3.5 g/dL | alk. phos. ([1]; 10 μg hypericin): 138 IU/l and 140 IU/l | calcium ([1]; 10 μg hypericin): 6.7 mg/dL | chloride ([1]; 10 μg hypericin): 112 meq/l | cholesterol ([1]; 10 μg hypericin): 155 mg/dL | creatinine ([1]; 10 μg hypericin): 0.3 mg/dL | globulins ([1]; 10 μg hypericin): 3.0 g/dL | glucose ([1]; 10 μg hypericin): 113 mg/dL | iron ([1]; 10 μg hypericin): 218 mog/dl and 220 mog/dl | phosphorous ([1]; 10 μg hypericin): 8.2 mg/dL and 8.1 mg/dL | retics ([1]; 10 μg hypericin): 1.7% and 0.5% | sodium ([1]; 10 μg hypericin): 148 meq/l | total bilirubin ([1]; 10 μg hypericin): 0.8 mg/dL and 0.9 mg/dL | total protein ([1]; 10 μg hypericin): 6.5 g/dL | triglycerides ([1]; 10 μg hypericin): 67 mg/dL and 64 mg/dL | uric acid ([1]; 10 μg hypericin): 2.9 mg/dL and 3.0 mg/dL | BUN ([1]; 25 μg hypericin): 18 mg/dL | Hb ([1]; 25 μg hypericin): 12.8 gm, dl | Hematocrit ([1]; 25 μg hypericin): 37.7 and 37.9 | WBC ([1]; 25 μg hypericin): 4.7 /cumm | albumin ([1]; 25 μg hypericin): 3.7 g/dL and 3.6 g/dL | alk. phos. ([1]; 25 μg hypericin): 136 IU/l and 134 IU/l | calcium ([1]; 25 μg hypericin): 6.7 mg/dL and 6.3 mg/dL | chloride ([1]; 25 μg hypericin): 111 meq/l and 110 meq/l | cholesterol ([1]; 25 μg hypericin): 166 mg/dL and 162 mg/dL | creatinine ([1]; 25 μg hypericin): 0.3 mg/dL | globulins ([1]; 25 μg hypericin): 3.1 g/dL and 3.3 g/dL | glucose ([1]; 25 μg hypericin): 111 mg/dL and 110 mg/dL | iron ([1]; 25 μg hypericin): 218 mog/dl and 219 mog/dl | phosphorous ([1]; 25 μg hypericin): 8.2 mg/dL and 8.1 mg/dL | retics ([1]; 25 μg hypericin): 0.8% and 0.3% | sodium ([1]; 25 μg hypericin): 146 meq/l and 144 meq/l | total bilirubin ([1]; 25 μg hypericin): 0.9 mg/dL | total protein ([1]; 25 μg hypericin): 6.8 g/dL and 6.9 g/dL | triglycerides ([1]; 25 μg hypericin): 80 mg/dL and 84 mg/dL | uric acid ([1]; 25 μg hypericin): 3.9 mg/dL and 3.8 mg/dL | BUN ([1]; 50 μg hypericin): 18 mg/dL | Hb ([1]; 50 μg hypericin): 12.8 gm, dl | Hematocrit ([1]; 50 μg hypericin): 38.1 and 38.0 | WBC ([1]; 50 μg hypericin): 4.8 /cumm | albumin ([1]; 50 μg hypericin): 3.5 g/dL | alk. phos. ([1]; 50 μg hypericin): 141 IU/l | calcium ([1]; 50 μg hypericin): 6.6 mg/dL and 6.8 mg/dL | chloride ([1]; 50 μg hypericin): 113 meq/l | cholesterol ([1]; 50 μg hypericin): 152 mg/dL and 150 mg/dL | creatinine ([1]; 50 μg hypericin): 0.4 mg/dL | globulins ([1]; 50 μg hypericin): 3.0 g/dL | glucose ([1]; 50 μg hypericin): 113 mg/dL and 114 mg/dL | iron ([1]; 50 μg hypericin): 220 mog/dl and 221 mog/dl | phosphorous ([1]; 50 μg hypericin): 8.3 mg/dL and 8.2 mg/dL | retics ([1]; 50 μg hypericin): 1.4% and 2.5% | sodium ([1]; 50 μg hypericin): 148 meq/l | total bilirubin ([1]; 50 μg hypericin): 0.8 mg/dL and 0.9 mg/dL | total protein ([1]; 50 μg hypericin): 6.5 g/dL | triglycerides ([1]; 50 μg hypericin): 61 mg/dL and 62 mg/dL | uric acid ([1]; 50 μg hypericin): 3.0 mg/dL and 2.8 mg/dL | BUN ([1]; 100 μg hypericin): 18 mg/dL and 17 mg/dL | Hb ([1]; 100 μg hypericin): 12.8 gm, dl and 13.2 gm, dl | Hematocrit ([1]; 100 μg hypericin): 37.8 and 38.4 | WBC ([1]; 100 μg hypericin): 4.9 /cumm and 5.0 /cumm | albumin ([1]; 100 μg hypericin): 3.5 g/dL and 3.4 g/dL | alk. phos. ([1]; 100 μg hypericin): 140 IU/l and 138 IU/l | calcium ([1]; 100 μg hypericin): 6.6 mg/dL | cholesterol ([1]; 100 μg hypericin): 153 mg/dL and 151 mg/dL | creatinine ([1]; 100 μg hypericin): 0.4 mg/dL | globulins ([1]; 100 μg hypericin): 3.0 g/dL and 2.7 g/dL | iron ([1]; 100 μg hypericin): 220 mog/dl and 216 mog/dl | phosphorous ([1]; 100 μg hypericin): 8.2 mg/dL and 8.0 mg/dL | retics ([1]; 100 μg hypericin): 0.8% and 0.7% | sodium ([1]; 100 μg hypericin): 149 meq/l and 146 meq/l | total bilirubin ([1]; 100 μg hypericin): 1.0 mg/dL | total protein ([1]; 100 μg hypericin): 6.5 g/dL and 6.1 g/dL | triglycerides ([1]; 100 μg hypericin): 92 mg/dL and 87 mg/dL | uric acid ([1]; 100 μg hypericin): 3.2 mg/dL and 3.1 mg/dL | BUN ([1]; 200 μg hypericin): 18 mg/dL | Hb ([1]; 200 μg hypericin): 12.6 gm, dl and 12.7 gm, dl | Hematocrit ([1]; 200 μg hypericin): 37.5 and 34.6 | WBC ([1]; 200 μg hypericin): 4.4 /cumm and 4.6 /cumm | albumin ([1]; 200 μg hypericin): 3.5 g/dL | alk. phos. ([1]; 200 μg hypericin): 139 IU/l and 140 IU/l | calcium ([1]; 200 μg hypericin): 6.6 mg/dL | chloride ([1]; 200 μg hypericin): 110 meq/l and 111 meq/l | cholesterol ([1]; 200 μg hypericin): 155 mg/dL and 157 mg/dL | creatinine ([1]; 200 μg hypericin): 0.4 mg/dL | globulins ([1]; 200 μg hypericin): 3.3 g/dL and 2.9 g/dL | glucose ([1]; 200 μg hypericin): 122 mg/dL and 111 mg/dL | iron ([1]; 200 μg hypericin): 211 mog/dl and 215 mog/dl | phosphorous ([1]; 200 μg hypericin): 7.9 mg/dL and 8.0 mg/dL | retics ([1]; 200 μg hypericin): 2.8% and 0.6% | sodium ([1]; 200 μg hypericin): 145 meq/l and 147 meq/l | total bilirubin ([1]; 200 μg hypericin): 1.1 mg/dL | total protein ([1]; 200 μg hypericin): 6.8 g/dL and 6.4 g/dL | triglycerides ([1]; 200 μg hypericin): 92 mg/dL and 89 mg/dL | uric acid ([1]; 200 μg hypericin): 3.8 mg/dL and 3.6 mg/dL | effect on clinical chemistries and hematological parameters (summary) ([1]; up to 200 micrograms/ml): did not significantly affect
